Results taken from ChEMBL document CHEMBL4011656, “Discovery and Optimization of Chromeno[2,3-c]pyrrol-9(2H)-ones as Novel Selective and Orally Bioavailable Phosphodiesterase 5 Inhibitors for the Treatment of Pulmonary Arterial Hypertension” (J Med Chem, 2017).
Calls of active or inactive are those of the source. The calls are words filed in the database; no cut-off is given here.

Tests used:
[1] = target: cGMP-specific 3',5'-cyclic phosphodiesterase (Homo sapiens, UniProt O76074)
[2] = Oral bioavailability in Sprague-Dawley rat by LC-MS/MS analysis; format: ADME, organism-based; details: in vivo
[3] = Hepatic extraction ratio in human microsomes; format: ADME, microsome; details: liver microsomes, read-out: ERH
[4] = Hepatic clearance in rat liver microsomes; format: ADME, microsome
[5] = Apparent clearance in human microsomes; format: ADME, microsome; details: liver microsomes, read-out: CLH(app)
Liver [6] = experiment: Intrinsic clearance in rat liver microsomes; format: ADME, microsome
[7] = Hepatic clearance in human microsomes; format: ADME, microsome; details: liver microsomes
[8] = Half life in rat liver microsomes; format: ADME, microsome
[9] = Apparent clearance in rat liver microsomes; format: ADME, microsome; details: read-out: CLH(app)
[10] = Hepatic extraction ratio in rat liver microsomes; format: ADME, microsome; details: read-out: ERH
Liver [11] = experiment: Drug metabolism in human liver microsomes assessed as metabolic rate; format: ADME, microsome
[12] = Half life in human microsomes; format: ADME, microsome; details: liver microsomes
Liver [13] = experiment: Intrinsic clearance in human liver microsomes; format: ADME, microsome
Liver [14] = experiment: Drug metabolism in rat liver microsomes assessed as metabolic rate; format: ADME, microsome
Rattus norvegicus [15] = species on record: Rattus norvegicus; details: Wistar, 10 mg/kg
Rattus norvegicus [16] = experiment: Reduction in MCT-induced increase in mean pulmonary arterial pressure in Wistar rat model of monocrotaline pulmonary arterial hypertension assessed as mean pulmonary arterial pressure at 10 mg/kg, po for 3 weeks (reference value: 32.74 mmHg); format: functional
[17] = Oral bioavailability in rat; format: ADME, organism-based; details: in vivo

| Compound | IC50 [1] | other results |
| --- | --- | --- |
| O=c1c2ccccc2oc2c(Cc3ccc(O)cc3)[nH]c(-c3cccnc3)c12 | 77 nM |  |
| O=c1c2ccccc2oc2c(Cc3ccc(O)cc3)[nH]c(-c3cccnc3Cl)c12 | > 100 nM |  |
| Cc1nnc(-c2[nH]c(Cc3ccc(O)cc3)c3oc4ccccc4c(=O)c23)o1 | > 100 nM |  |
| O=c1c2ccccc2oc2c(Cc3ccc(O)cc3)[nH]c(-c3ccncc3)c12 | > 100 nM |  |
| O=c1c2ccccc2oc2c(Cc3ccc(O)cc3)[nH]c(-c3ccc(Cl)cn3)c12 | 50 nM |  |
| CC(C)(C)Oc1ccc(Cc2[nH]c(-c3nccs3)c3c(=O)c4ccccc4oc23)cc1 | > 100 nM |  |
| O=c1c2ccccc2oc2c(Cc3ccc(O)cc3)[nH]c(-c3nccs3)c12 | 5.4 nM | bioavailability [2]: < 10% |
| O=c1c2ccccc2oc2c(Cc3ccc(O)cc3)[nH]c(-c3ccccn3)c12 | 21 nM |  |
| O=c1c2ccccc2oc2c(Cc3ccc(O)cc3)[nH]c(-c3cccnc3O)c12 | > 100 nM |  |
| Cc1ncc2n1-c1ccc(Cl)cc1C(c1ccccc1F)=NC2 [MIDAZOLAM] |  | hepatic extraction ratio [3]: 0.96; CLhep predicted [4]: 53.2 mL/min/kg; CLint scaled [5]: 488 mL/min/kg; CLH (Liver [6]): 574 µL/min/mg; CLhep predicted [7]: 19.2 mL/min/kg; half-life [8]: 2.4 min; CLint scaled [9]: 1040 mL/min/kg; hepatic extraction ratio [10]: 0.95; K (Liver [11]): 0.2532; half-life [12]: 2.7 min; CLH (Liver [13]): 506.4 µL/min/mg; K (Liver [14]): 0.2877 |
| COC(=O)c1[nH]c(Cc2ccc(O)cc2)c2oc3ccccc3c(=O)c12 | 31 nM |  |
| O=c1c2ccccc2oc2c(Cc3ccc(C(F)(F)F)cc3)[nH]c(-c3nccs3)c12 | 30 nM |  |
| O=C(c1[nH]c(Cc2ccc(O)cc2)c2oc3ccccc3c(=O)c12)N1CCOCC1 | > 100 nM |  |
| O=C(c1[nH]c(Cc2ccc(O)cc2)c2oc3ccccc3c(=O)c12)N1CCN(C2CC2)CC1 | > 100 nM |  |
| CC(C)N1CCN(C(=O)c2[nH]c(Cc3ccc(O)cc3)c3oc4ccccc4c(=O)c23)CC1 | > 100 nM |  |
| Cc1ccc(-c2[nH]c(Cc3ccc(O)cc3)c3oc4ccccc4c(=O)c23)cc1 | > 100 nM |  |
| CCCc1nn(C)c2c(=O)[nH]c(-c3cc(S(=O)(=O)N4CCN(C)CC4)ccc3OCC)nc12.O=C(O)CC(O)(CC(=O)O)C(=O)O [SILDENAFIL CITRATE] |  | inhibition (Rattus norvegicus [15]): Active; Activity (Rattus norvegicus [16]): 22.13 mmHg; bioavailability [17]: 41% |
| O=c1c2ccccc2oc2c(Cc3ccc(O)cc3)[nH]c(-c3ccccc3F)c12 | 16 nM |  |
| O=c1c2ccccc2oc2c(Cc3ccc(O)cc3)[nH]c(-c3ccncc3Cl)c12 | > 100 nM |  |
| O=c1c2ccccc2oc2c(Cc3ccc(O)cc3)[nH]c(-c3ccncn3)c12 | 56 nM |  |
| COc1ncccc1-c1[nH]c(Cc2ccc(O)cc2)c2oc3ccccc3c(=O)c12 | > 100 nM |  |
| O=c1c2ccccc2oc2c(Cc3ccc(O)cc3)[nH]c(-c3cc(Cl)ccn3)c12 | > 100 nM |  |
